What was measured:
ducksalad = experiment: Test D flooded paddy test; type: in vivo, Heteranthera limosa; conditions: 250 g ai/ha, applied to paddy water, visual rating after 13 to 14 days, scale 0 to 100 (0 no effect, 100 complete control)
In short: (§1)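 Post-flood water application at the 2-leaf stage; 3 cm flood depth kept constant; visual control rating 0–100 after 13–14 days greenhouse growth.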

pigweed, palmer [1] = experiment: Test C preemergence; type: in vivo, Amaranthus palmeri; conditions: for Pigweed, Palmer plant response rating: 500 g ai/ha, preemergence, 0 to 100 scale (0 no effect, 100 complete control)
In short: (§2)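 Greenhouse herbicide screen, 10-day duration. Test chemicals in solvent/surfactant blend were sprayed onto soil at sowing (pre) or onto 2–10 cm seedlings at one to two leaves (post); injury scored visually against controls, 0 no effect to 100 complete control.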

soybean [2] = experiment: Test C preemergence; type: in vivo, Glycine max; conditions: for Soybean plant response rating: 500 g ai/ha, preemergence, 0 to 100 scale (0 no effect, 100 complete control); for Plant response rating, Soybean: Preemergence, 125 g ai/ha, 0 to 100 scale, 0 no effect, 100 complete control
In short: as §2

galium = experiment: Test C postemergence; type: in vivo, Galium aparine; conditions: 10 days, 0 to 100 scale (0 no effect, 100 complete control)
In short: as §2

wheat [3] = experiment: Test C postemergence; type: in vivo, Triticum aestivum; conditions: 10 days, 0 to 100 scale (0 no effect, 100 complete control)
In short: as §2

sedge, umbrella = experiment: Test D flooded paddy test; type: in vivo, Cyperus difformis; conditions: 250 g ai/ha, applied to paddy water, visual rating after 13 to 14 days, scale 0 to 100 (0 no effect, 100 complete control)
In short: as §1

ryegrass, Italian [4] = experiment: Test C postemergence; type: in vivo, Lolium multiflorum; conditions: 10 days, 0 to 100 scale (0 no effect, 100 complete control)
In short: as §2

corn [5] = experiment: Test C postemergence; type: in vivo, Zea mays; conditions: 10 days, 0 to 100 scale (0 no effect, 100 complete control)
In short: as §2

blackgrass [6] = experiment: Test C postemergence; type: in vivo, Alopecurus myosuroides; conditions: 10 days, 0 to 100 scale (0 no effect, 100 complete control)
In short: as §2

kochia [7] = experiment: Test C postemergence; type: in vivo, Bassia scoparia; conditions: 10 days, 0 to 100 scale (0 no effect, 100 complete control)
In short: as §2

pigweed, palmer [8] = experiment: Test C postemergence; type: in vivo, Amaranthus palmeri; conditions: 10 days, 0 to 100 scale (0 no effect, 100 complete control)
In short: as §2

barnyardgrass [9] = experiment: Test C postemergence; type: in vivo, Echinochloa crusgalli; conditions: 10 days, 0 to 100 scale (0 no effect, 100 complete control)
In short: as §2

soybean [10] = experiment: Test C postemergence; type: in vivo, Glycine max; conditions: 10 days, 0 to 100 scale (0 no effect, 100 complete control)
In short: as §2

horseweed = experiment: Test C postemergence; type: in vivo, Erigeron canadensis; conditions: 10 days, 0 to 100 scale (0 no effect, 100 complete control)
In short: as §2

green foxtail [11] = experiment: Test C postemergence; type: in vivo, Setaria viridis; conditions: 10 days, 0 to 100 scale (0 no effect, 100 complete control)
In short: as §2

rice = experiment: Test D flooded paddy test; type: in vivo, Oryza sativa; conditions: 250 g ai/ha, applied to paddy water, visual rating after 13 to 14 days, scale 0 to 100 (0 no effect, 100 complete control)
In short: as §1

barnyardgrass [12] = experiment: Test C preemergence; type: in vivo, Echinochloa crusgalli; conditions: for Barnyardgrass plant response rating: 500 g ai/ha, preemergence, 0 to 100 scale (0 no effect, 100 complete control); for Plant response rating, Barnyardgrass: Preemergence, 125 g ai/ha, 0 to 100 scale, 0 no effect, 100 complete control
In short: as §2

green foxtail [13] = experiment: Test C preemergence; type: in vivo, Setaria viridis; conditions: for Foxtail, Green plant response rating: 500 g ai/ha, preemergence, 0 to 100 scale (0 no effect, 100 complete control); for Plant response rating, Foxtail, Green: Preemergence, 125 g ai/ha, 0 to 100 scale, 0 no effect, 100 complete control
In short: as §2

oat, wild [14] = experiment: Test C postemergence; type: in vivo, Avena fatua; conditions: 10 days, 0 to 100 scale (0 no effect, 100 complete control)
In short: as §2

oat, wild [15] = experiment: Test C preemergence; type: in vivo, Avena fatua; conditions: for Oat, Wild plant response rating: 500 g ai/ha, preemergence, 0 to 100 scale (0 no effect, 100 complete control); for Plant response rating, Oat, Wild: Preemergence, 125 g ai/ha, 0 to 100 scale, 0 no effect, 100 complete control
In short: as §2

corn [16] = experiment: Test C preemergence; type: in vivo, Zea mays; conditions: for Corn plant response rating: 500 g ai/ha, preemergence, 0 to 100 scale (0 no effect, 100 complete control); for Plant response rating, Corn: Preemergence, 125 g ai/ha, 0 to 100 scale, 0 no effect, 100 complete control
In short: as §2

blackgrass [17] = experiment: Test C preemergence; type: in vivo, Alopecurus myosuroides; conditions: for Blackgrass plant response rating: 500 g ai/ha, preemergence, 0 to 100 scale (0 no effect, 100 complete control); for Plant response rating, Blackgrass: Preemergence, 125 g ai/ha, 0 to 100 scale, 0 no effect, 100 complete control
In short: as §2

ragweed [18] = experiment: Test C postemergence; type: in vivo, Ambrosia artemisiifolia; conditions: 10 days, 0 to 100 scale (0 no effect, 100 complete control)
In short: as §2

ragweed [19] = experiment: Test C preemergence; type: in vivo, Ambrosia artemisiifolia; conditions: for Ragweed plant response rating: 500 g ai/ha, preemergence, 0 to 100 scale (0 no effect, 100 complete control); for Plant response rating, Ragweed: Preemergence, 125 g ai/ha, 0 to 100 scale, 0 no effect, 100 complete control
In short: as §2

wheat [20] = experiment: Test C preemergence; type: in vivo, Triticum aestivum; conditions: for Wheat plant response rating: 500 g ai/ha, preemergence, 0 to 100 scale (0 no effect, 100 complete control); for Plant response rating, Wheat: Preemergence, 125 g ai/ha, 0 to 100 scale, 0 no effect, 100 complete control
In short: as §2

kochia [21] = experiment: Test C preemergence; type: in vivo, Bassia scoparia; conditions: for Kochia plant response rating: 500 g ai/ha, preemergence, 0 to 100 scale (0 no effect, 100 complete control); for Plant response rating, Kochia: Preemergence, 125 g ai/ha, 0 to 100 scale, 0 no effect, 100 complete control
In short: as §2

barnyardgrass [22] = experiment: Test D flooded paddy test; type: in vivo, Echinochloa crus-galli; conditions: 250 g ai/ha, applied to paddy water, visual rating after 13 to 14 days, scale 0 to 100 (0 no effect, 100 complete control)
In short: as §1

ryegrass, Italian [23] = experiment: Test C preemergence; type: in vivo, Lolium multiflorum; conditions: for Ryegrass, Italian plant response rating: 500 g ai/ha, preemergence, 0 to 100 scale (0 no effect, 100 complete control); for Plant response rating, Ryegrass, Italian: Preemergence, 125 g ai/ha, 0 to 100 scale, 0 no effect, 100 complete control
In short: as §2

Cc1nnc(-c2cccc(C(=O)N3C[C@H](C)Oc4c(Cl)cccc43)c2)o1 [Compound 355]
Plant response rating, Ducksalad (Flood) (ducksalad): 0 | Pigweed, Palmer plant response rating (pigweed, palmer [1]): 0 | Soybean plant response rating (soybean [2]): 0 | Plant response rating, Soybean (soybean [2]): 20 | Plant response rating, Galium (galium; 500 g ai/ha, postemergence): 10 | Plant response rating, Wheat (wheat [3]; 500 g ai/ha, postemergence): 10 | Plant response rating, Wheat (wheat [3]; Postemergence, 125 g ai/ha): 10 | Plant response rating, Sedge, Umbrella (Flood) (sedge, umbrella): 0 | Plant response rating, Ryegrass, Italian (ryegrass, Italian [4]; 500 g ai/ha, postemergence): 0 | Plant response rating, Ryegrass, Italian (ryegrass, Italian [4]; Postemergence, 125 g ai/ha): 0 | Plant response rating, Corn (corn [5]; 500 g ai/ha, postemergence): 10 | Plant response rating, Corn (corn [5]; Postemergence, 125 g ai/ha): 10 | Plant response rating, Blackgrass (blackgrass [6]; 500 g ai/ha, postemergence): 0 | Plant response rating, Blackgrass (blackgrass [6]; Postemergence, 125 g ai/ha): 0 | Plant response rating, Kochia (kochia [7]; 500 g ai/ha, postemergence): 0 | Plant response rating, Pigweed, Palmer (pigweed, palmer [8]; 500 g ai/ha, postemergence): 10 | Plant response rating, Barnyardgrass (barnyardgrass [9]; 500 g ai/ha, postemergence): 10 | Plant response rating, Barnyardgrass (barnyardgrass [9]; Postemergence, 125 g ai/ha): 10 | Plant response rating, Soybean (soybean [10]; 500 g ai/ha, postemergence): 50 | Plant response rating, Horseweed (horseweed; 500 g ai/ha, postemergence): 0 | Plant response rating, Horseweed (horseweed; Postemergence, 125 g ai/ha): 0 | Plant response rating, Foxtail, Green (green foxtail [11]; 500 g ai/ha, postemergence): 10 | Plant response rating, Foxtail, Green (green foxtail [11]; Postemergence, 125 g ai/ha): 10 | Plant response rating, Rice (Flood) (rice): 0 | Barnyardgrass plant response rating (barnyardgrass [12]): 0 | Plant response rating, Barnyardgrass (barnyardgrass [12]): 0 | Foxtail, Green plant response rating (green foxtail [13]): 20 | Plant response rating, Foxtail, Green (green foxtail [13]): 20 | Plant response rating, Oat, Wild (oat, wild [14]; 500 g ai/ha, postemergence): 0 | Plant response rating, Oat, Wild (oat, wild [14]; Postemergence, 125 g ai/ha): 0 | Oat, Wild plant response rating (oat, wild [15]): 0 | Plant response rating, Oat, Wild (oat, wild [15]): 0 | Corn plant response rating (corn [16]): 0 | Plant response rating, Corn (corn [16]): 0 | Blackgrass plant response rating (blackgrass [17]): 0 | Plant response rating, Blackgrass (blackgrass [17]): 0 | Plant response rating, Ragweed (ragweed [18]; 500 g ai/ha, postemergence): 0 | Ragweed plant response rating (ragweed [19]): 0 | Plant response rating, Ragweed (ragweed [19]): 0 | Wheat plant response rating (wheat [20]): 0 | Plant response rating, Wheat (wheat [20]): 0 | Kochia plant response rating (kochia [21]): 0 | Plant response rating, Kochia (kochia [21]): 0 | Plant response rating, Barnyardgrass (Flood) (barnyardgrass [22]): 0 | Ryegrass, Italian plant response rating (ryegrass, Italian [23]): 20 | Plant response rating, Ryegrass, Italian (ryegrass, Italian [23]): 20

COC(C)c1ncn(-c2ccc(C)c(C(=O)N3CC(C)Oc4c(Cl)cccc43)c2)n1 (mixture of isomers) [Compound 359]
Plant response rating, Ducksalad (Flood) (ducksalad): 60 | Pigweed, Palmer plant response rating (pigweed, palmer [1]): 100 | Plant response rating, Pigweed, Palmer (pigweed, palmer [1]; Preemergence, 125 g ai/ha, 0 to 100 scale, 0 no effect, 100 complete control): 90 | Soybean plant response rating (soybean [2]): 100 | Plant response rating, Soybean (soybean [2]): 80 | Plant response rating, Galium (galium; 500 g ai/ha, postemergence): 100 | Plant response rating, Galium (galium; Postemergence, 125 g ai/ha): 100 | Plant response rating, Wheat (wheat [3]; 500 g ai/ha, postemergence): 90 | Plant response rating, Wheat (wheat [3]; Postemergence, 125 g ai/ha): 30 | Plant response rating, Sedge, Umbrella (Flood) (sedge, umbrella): 65 | Plant response rating, Ryegrass, Italian (ryegrass, Italian [4]; 500 g ai/ha, postemergence): 100 | Plant response rating, Ryegrass, Italian (ryegrass, Italian [4]; Postemergence, 125 g ai/ha): 90 | Plant response rating, Corn (corn [5]; 500 g ai/ha, postemergence): 80 | Plant response rating, Corn (corn [5]; Postemergence, 125 g ai/ha): 40 | Plant response rating, Blackgrass (blackgrass [6]; 500 g ai/ha, postemergence): 100 | Plant response rating, Blackgrass (blackgrass [6]; Postemergence, 125 g ai/ha): 60 | Plant response rating, Kochia (kochia [7]; 500 g ai/ha, postemergence): 80 | Plant response rating, Kochia (kochia [7]; Postemergence, 125 g ai/ha): 50 | Plant response rating, Pigweed, Palmer (pigweed, palmer [8]; 500 g ai/ha, postemergence): 100 | Plant response rating, Pigweed, Palmer (pigweed, palmer [8]; Postemergence, 125 g ai/ha): 60 | Plant response rating, Barnyardgrass (barnyardgrass [9]; 500 g ai/ha, postemergence): 90 | Plant response rating, Barnyardgrass (barnyardgrass [9]; Postemergence, 125 g ai/ha): 30 | Plant response rating, Soybean (soybean [10]; 500 g ai/ha, postemergence): 100 | Plant response rating, Soybean (soybean [10]; Postemergence, 125 g ai/ha): 100 | Plant response rating, Horseweed (horseweed; 500 g ai/ha, postemergence): 90 | Plant response rating, Horseweed (horseweed; Postemergence, 125 g ai/ha): 70 | Plant response rating, Foxtail, Green (green foxtail [11]; 500 g ai/ha, postemergence): 80 | Plant response rating, Foxtail, Green (green foxtail [11]; Postemergence, 125 g ai/ha): 50 | Plant response rating, Rice (Flood) (rice): 10 | Barnyardgrass plant response rating (barnyardgrass [12]): 100 | Plant response rating, Barnyardgrass (barnyardgrass [12]): 100 | Foxtail, Green plant response rating (green foxtail [13]): 100 | Plant response rating, Foxtail, Green (green foxtail [13]): 100 | Plant response rating, Oat, Wild (oat, wild [14]; 500 g ai/ha, postemergence): 90 | Plant response rating, Oat, Wild (oat, wild [14]; Postemergence, 125 g ai/ha): 60 | Oat, Wild plant response rating (oat, wild [15]): 90 | Plant response rating, Oat, Wild (oat, wild [15]): 90 | Corn plant response rating (corn [16]): 30 | Plant response rating, Corn (corn [16]): 20 | Blackgrass plant response rating (blackgrass [17]): 100 | Plant response rating, Blackgrass (blackgrass [17]): 80 | Plant response rating, Ragweed (ragweed [18]; 500 g ai/ha, postemergence): 80 | Plant response rating, Ragweed (ragweed [18]; Postemergence, 125 g ai/ha): 60 | Ragweed plant response rating (ragweed [19]): 100 | Plant response rating, Ragweed (ragweed [19]): 0 | Wheat plant response rating (wheat [20]): 80 | Plant response rating, Wheat (wheat [20]): 30 | Kochia plant response rating (kochia [21]): 100 | Plant response rating, Kochia (kochia [21]): 100 | Plant response rating, Barnyardgrass (Flood) (barnyardgrass [22]): 15 | Ryegrass, Italian plant response rating (ryegrass, Italian [23]): 100 | Plant response rating, Ryegrass, Italian (ryegrass, Italian [23]): 90
